Legend:
[1] = target: PIM (PIM-1, PIM-2, and/or PIM-3); experiment: PIM-1, PIM-2 and PIM-3 inhibition, biochemical chemiluminescence assays (Kinase Glo, IC50 determination); details: Table 1 activity class; PIM refers to PIM-1, PIM-2, and/or PIM-3; read-out: PIM IC50 (Activity B)
CK2 = CK2 (Homo sapiens, UniProt P68400); experiment: CK2 inhibition, biochemical chemiluminescence holoenzyme assay (Kinase Glo, IC50 determination); details: Table 1 activity class; symbol given only if active; read-out: CK2 IC50 (Activity C)
CK2, sequence (P68400 whole entry): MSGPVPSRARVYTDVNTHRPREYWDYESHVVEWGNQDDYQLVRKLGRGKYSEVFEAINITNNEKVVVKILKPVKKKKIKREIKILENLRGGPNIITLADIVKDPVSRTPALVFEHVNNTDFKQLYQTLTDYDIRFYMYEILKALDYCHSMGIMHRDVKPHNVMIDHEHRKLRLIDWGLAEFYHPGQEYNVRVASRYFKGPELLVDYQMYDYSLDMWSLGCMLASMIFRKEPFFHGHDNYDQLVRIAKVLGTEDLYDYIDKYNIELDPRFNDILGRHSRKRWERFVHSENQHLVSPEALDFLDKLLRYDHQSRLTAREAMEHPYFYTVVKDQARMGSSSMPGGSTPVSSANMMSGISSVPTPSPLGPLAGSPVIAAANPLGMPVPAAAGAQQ
CK2, sequence (P67870 whole entry partner): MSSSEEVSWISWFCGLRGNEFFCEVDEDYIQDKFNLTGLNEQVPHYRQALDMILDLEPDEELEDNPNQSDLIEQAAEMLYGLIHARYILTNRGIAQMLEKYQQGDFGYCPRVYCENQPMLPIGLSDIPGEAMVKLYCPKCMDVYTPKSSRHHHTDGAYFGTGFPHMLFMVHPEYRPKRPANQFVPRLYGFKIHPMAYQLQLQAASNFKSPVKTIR
Summary of the method: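 Holoenzyme CK2 assay; compounds pre-incubated with substrate and enzyme, then reacted 150 min at 24-27° C. Remaining ATP measured as luminescence with Kinase Glo, and IC50 derived from the signal.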

IC50 [1] [µM] | IC50 (CK2) [µM] | SMILES
< 10 | < 10 | CC(=O)Nc1ccc(C(=O)Nc2ccc(Cl)c(-c3nc4c(oc5ccc(Br)cc54)c(=O)[nH]3)c2)cc1 [Compound 356, 4-(acetylamino)-N-[3-(8-bromo-4-oxo-3,4-dihydro[1]benzofuro[3,2-d]pyrimidin-2-yl)-4-chlorophenyl]benzamide]
< 10 | < 10 | CN(C)Cc1ccc(-c2nc3c(oc4ccc(Br)cc43)c(=O)[nH]2)cc1 [Compound 358, 8-Bromo-2-{4-[(dimethylamino)methyl]phenyl}[1]benzofuro[3,2-d]pyrimidin-4(3H)-one]
< 10 | < 10 | O=c1[nH]c(-c2ccc(OCC3CNCCO3)cc2)nc2c1oc1ccc(Br)cc12 (stereo not drawn) [Compound 359, 8-Bromo-2-{4-[(morpholin-2-ylmethyl)oxy]phenyl}[1]benzofuro[3,2-d]pyrimidin-4(3H)-one]
< 10 | < 10 | O=C(Nc1ccc(-c2nc3c(oc4ccc(Br)cc43)c(=O)[nH]2)cc1)c1ccncc1 [Compound 360, N-[4-(8-bromo-4-oxo-3,4-dihydro[1]benzofuro[3,2-d]pyrimidin-2-yl)phenyl]pyridine-4-carboxamide]
< 10 | < 10 | O=C(Nc1ccc(Cl)c(-c2nc3c(oc4ccc(Br)cc43)c(=O)[nH]2)c1)C1CCOC1 (stereo not drawn) [Compound 361, N-[3-(8-bromo-4-oxo-3,4-dihydro[1]benzofuro[3,2-d]pyrimidin-2-yl)-4-chlorophenyl]tetrahydrofuran-3-carboxamide]
< 10 | < 10 | CC(=O)N[C@H]1CCN(Cc2nc3c(oc4ccc(Br)cc43)c(=O)[nH]2)C1 [Compound 365, N-{(3S)-1-[(8-bromo-4-oxo-3,4-dihydro[1]benzofuro[3,2-d]pyrimidin-2-yl)methyl]pyrrolidin-3-yl}acetamide]
< 10 | < 10 | O=C(Nc1ccc(Cl)c(-c2nc3c(oc4ccc(Br)cc43)c(=O)[nH]2)c1)c1ccccc1 [Compound 371, N-[3-(8-bromo-4-oxo-3,4-dihydro[1]benzofuro[3,2-d]pyrimidin-2-yl)-4-chlorophenyl]benzamide]
< 10 | < 10 | O=C(Nc1ccc(Cl)c(-c2nc3c(oc4ccc(Br)cc43)c(=O)[nH]2)c1)c1ccno1 [Compound 372, N-[3-(8-bromo-4-oxo-3,4-dihydro[1]benzofuro[3,2-d]pyrimidin-2-yl)-4-chlorophenyl]isoxazole-5-carboxamide]
< 10 | < 10 | NC[C@H]1CC[C@H](c2nc3c(oc4ccc(Br)cc43)c(=O)[nH]2)CC1 [Compound 376, 2-[trans-4-(Aminomethyl)cyclohexyl]-8-bromo[1]benzofuro[3,2-d]pyrimidin-4(3H)-one]
< 10 | < 10 | CNCc1ccc(-c2nc3c(oc4ccc(Br)cc43)c(=O)[nH]2)cc1 [Compound 382, 8-bromo-2-{4-[(methylamino)methyl]phenyl}[1]benzofuro[3,2-d]pyrimidin-4(3H)-one]
< 10 | < 10 | O=C(Nc1ccc(-c2nc3c(oc4ccc(Br)cc43)c(=O)[nH]2)c(Cl)c1)c1ccc(-n2cccn2)nc1 [Compound 396, N-[4-(8-bromo-4-oxo-3,4-dihydro[1]benzofuro[3,2-d]pyrimidin-2-yl)-3-chlorophenyl]-6-(1H-pyrazol-1-yl)pyridine-3-carboxamide]
< 10 | < 10 | O=C(Nc1ccc(-c2nc3c(oc4ccc(Br)cc43)c(=O)[nH]2)c(Cl)c1)c1cnc2ccccc2n1 [Compound 397, N-[4-(8-bromo-4-oxo-3,4-dihydro[1]benzofuro[3,2-d]pyrimidin-2-yl)-3-chlorophenyl]quinoxaline-2-carboxamide]
< 10 | < 10 | CC(O)CN(Cc1nc2c(oc3ccc(Br)cc32)c(=O)[nH]1)CC(C)O (stereo not drawn) [Compound 403, 2-{[bis(2-hydroxypropyl)amino]methyl}-8-bromo[1]benzofuro[3,2-d]pyrimidin-4(3H)-one]
< 10 | < 10 | O=C(Nc1ccc(-c2nc3c(oc4ccc(Br)cc43)c(=O)[nH]2)c(Cl)c1)c1ccc2cccnc2n1 [Compound 405, N-[4-(8-bromo-4-oxo-3,4-dihydro[1]benzofuro[3,2-d]pyrimidin-2-yl)-3-chlorophenyl]-1,8-naphthyridine-2-carboxamide]
< 10 | < 10 | CN(Cc1nc2c(oc3ccc(Br)cc32)c(=O)[nH]1)CC(O)CO (stereo not drawn) [Compound 409, 8-bromo-2-{[(2,3-dihydroxypropyl)(methyl)amino]methyl}[1]benzofuro[3,2-d]pyrimidin-4(3H)-one]
< 10 | < 10 | O=c1[nH]c(CN(CCO)CCO)nc2c1oc1ccc(Br)cc12 [Compound 410, 2-{[bis(2-hydroxyethyl)amino]methyl}-8-bromo[1]benzofuro[3,2-d]pyrimidin-4(3H)-one]
< 10 | < 10 | O=C(NCc1ccccc1Cl)C1(O)CCN(Cc2nc3c(oc4ccc(Br)cc43)c(=O)[nH]2)C1 (stereo not drawn) [Compound 411, ′1-[(8-bromo-4-oxo-3,4-dihydro[1]benzofuro[3,2-d]pyrimidin-2-yl)methyl]-N-[(2-chlorophenyl)methyl]-3-hydroxypyrrolidine-3-carboxamide]
< 10 | < 10 | O=C(Nc1ccncc1)Nc1ccc(-c2nc3c(oc4ccc(Br)cc43)c(=O)[nH]2)c(Cl)c1 [Compound 415, 1-[4-(8-bromo-4-oxo-3,4-dihydro[1]benzofuro[3,2-d]pyrimidin-2-yl)-3-chlorophenyl]-3-pyridin-4-ylurea]
< 10 | < 10 | Cc1ccc2oc3c(=O)[nH]c(CN4CC[C@H](O)C4)nc3c2c1[N+](=O)O [Compound 424, hydroxy(2-{[(3S)-3-hydroxypyrrolidin-1-yl]methyl}-8-methyl-4-oxo-3,4-dihydro[1]benzofuro[3,2-d]pyrimidin-9-yl)oxoammonium]
< 10 | < 10 | COc1cc2oc3c(=O)[nH]c(CN4CC[C@H](O)C4)nc3c2cc1Br [Compound 436, 8-bromo-2-{[(3S)-3-hydroxypyrrolidin-1-yl]methyl}-7-(methyloxy)[1]benzofuro[3,2-d]pyrimidin-4(3H)-one]
< 10 | < 10 | O=c1[nH]c(-c2ccc3c(NCC4CCNCC4)n[nH]c3c2)nc2c1oc1ccc(Br)cc12 [Compound 441, 8-bromo-2-{3-[(piperidin-4-ylmethyl)amino]-1H-indazol-6-yl}[1]benzofuro[3,2-d]pyrimidin-4(3H)-one]
< 10 | < 10 | O=c1[nH]c(CN2CC[C@H](O)C2)nc2c1oc1ccc(NCc3ccccc3)cc12 [Compound 443, 2-{[(3S)-3-hydroxypyrrolidin-1-yl]methyl}-8-[(phenylmethyl)amino][1]benzofuro[3,2-d]pyrimidin-4(3H)-one]
< 10 | < 10 | COc1cccc(CCNc2ccc3oc4c(=O)[nH]c(CN5CC[C@H](O)C5)nc4c3c2)c1OC [Compound 445, 8-({2-[2,3-bis(methyloxy)phenyl]ethyl}amino)-2-{[(3S)-3-hydroxypyrrolidin-1-yl]methyl}[1]benzofuro[3,2-d]pyrimidin-4(3H)-one]

SMILES | IC50 [1] [µM] | IC50 (CK2) [µM]
O=c1[nH]c(CN2CCC[C@@H](O)C2)nc2c1oc1ccc(Br)cc12 [Compound 402, 8-bromo-2-{[(3R)-3-hydroxypiperidin-1-yl]methyl}[1]benzofuro[3,2-d]pyrimidin-4(3H)-one] | < 10 | < 10

— patent US20090247559A1 (Exelixis, Inc., priority 2007, published 2009)
